Experimental data published in patent publication US20020028804A1, “Cosmetic compositions containing substituted iminodibenzyl or fluorene derivatives” (Unilever Home & Personal Care USA, Division of Conopco, Inc., priority 2000, published 2002).
Values joined by “and” are separate entries in the source; they are usually repeats but may differ in a detail not shown here. Identical values can stand only once. Like-named read-outs stand apart in the source and are kept apart here.

Tested on: human sebocytes
Experiment: Sebum suppression: 14C-acetate incorporation in cultured human sebocytes
Type: cell-based
Conditions: for activity at 1 µM / activity at 10 µM / activity at 100 µM / activity at 0.1 µM: Homo sapiens
Procedure: Compounds A through H were tested for their potential to suppress sebum expression, alone or in the presence of a retinoid.
Secondary cultures of human sebocytes obtained from an adult […] were grown in 48-well tissue culture plates (Costar Corp.; Cambridge, Mass.) or 96-well tissue culture plates (Packard Co.; Meriden, Conn.) until confluent. Sebocyte growth medium consisted of Clonetics Keratinocyte Basal Medium (KBM) supplemented with 14 μg/ml bovine pituitary extract, 0.4 μg/ml hydrocortisone, 5 μg/ml insulin, 10 ng/ml epidermal growth factor, 1.2×10−10 M cholera toxin, 100 units/ml penicillin, and 100 μg/ml streptomycin. All cultures were incubated at 37° C. in the presence of 7.5% CO2. Medium was changed three times per week.
On the day of experimentation, the growth medium was removed and the sebocytes washed three times with sterile Dulbecco's Modified Eagle Medium (DMEM; phenol red free). Fresh DMEM was added to each sample (duplicates, triplicates, or quadruplicates depending on the experiment) with 5 microliter of test agent solubilized in ethanol either alone or in the presence of one or 10 micromolar of retinol. Controls consisted of addition of ethanol alone, retinol alone, or phenol red, which has estrogen-like activity and is included as a positive control.
Each plate was returned to the incubator for 20 hours followed by the addition of 14C-acetate buffer (5 mM final concentration, 56 mCi/mmol specific activity). Sebocytes were returned to the incubator for four hours after which each culture was rinsed three times with phosphate buffered saline to remove unbound label. Radioactive label remaining in the sebocytes was harvested and counted using a Beckman scintillation counter.

[1] = 1 μM test compound + 1 μM Retinol, read-out: % of Control
[2] = 1 μM test compound + 10 μM Retinol, read-out: % of Control
[3] = 1 μM test compound alone, read-out: % of Control
[4] = 10 μM test compound alone, read-out: % of Control
[5] = 100 μM test compound + 1 μM Retinol, read-out: % of Control
[6] = 100 μM test compound + 10 μM Retinol, read-out: % of Control
[7] = 100 μM test compound alone, read-out: % of Control
[8] = 1 μM test compound + 10 μM Retinol
[9] = 0.1 μM test compound + 1 μM Retinol, read-out: % of Control
[10] = 0.1 μM test compound + 10 μM Retinol, read-out: % of Control
[11] = 0.1 μM test compound alone, 14C-acetate label remaining in sebocytes, 20 h + 4 h, read-out: % of Control
[12] = 10 μM test compound + 1 μM Retinol, read-out: % of Control
[13] = 10 μM test compound + 10 μM Retinol, read-out: % of Control
[14] = 10 μM test compound + 10 μM Retinol

Row | Structure (SMILES) | activity at 1 µM [1] | activity at 1 µM [2] | activity at 1 µM [3] | activity at 10 µM [4] | activity at 100 µM [5] | activity at 100 µM [6] | activity at 100 µM [7] | % of Control (1 μM test compound alone, 1 µM) | activity at 10 µM [12] | further results
1 | O=C(Nc1ccc(OC(F)(F)F)cc1)N1c2ccccc2CCc2ccccc21 [Compound B] | 104% | 65.7% | 94.1% | 89.4% | 0.8% | 0.6% | 1.7% |  |  | 
2 | O=C(Nc1ccc(O)cc1)N1c2ccccc2CCc2ccccc21 [Compound C] |  |  |  | 56.1% |  |  |  | 66.4% | 37.4% | % of Control [8]: 48.5%; activity at 0.1 µM [9]: 95.1%; activity at 0.1 µM [10]: 84.6%; activity at 0.1 µM [11]: 103%; sebum suppressive activity when combined with retinol (in the presence of retinol / a retinoid, versus compound alone): improved activity
3 | O=S1(=O)OC(c2ccc(O)cc2)(c2ccc(O)cc2)c2ccccc21 [Phenol Red, phenol red, reference compound] |  |  |  |  |  |  |  |  |  | % of Control (28 μM Phenol Red (positive control)): 95.3% and 74.7%; % of Control (280 μM Phenol Red (positive control)): 15.9%
4 | CC1=C(/C=C/C(C)=C/C=C/C(C)=C/CO)C(C)(C)CCC1 [Retinol, retinol, reference compound] |  |  |  |  |  |  |  |  |  | % of Control (1 μM Retinol alone (control)): 98.1%; % of Control (10 μM Retinol alone (control)): 105.8%; activity at 1 µM (1 μM Retinol alone (control)): 96.5%
5 | CC1=C(Cl)CCC=C1NC(=O)N1c2ccccc2CCc2ccccc21 [Compound D] |  | 74.6% | 77.6% | 82.7% | 1.1% | 0.5% | 1.8% |  | 97.1% | % of Control (1 μM test compound + 1 μM Retinol): 96.9%; activity at 10 µM [13]: 76.8%
6 | O=C(CC1c2ccccc2-c2ccccc21)N1CCC(O)(c2ccccc2)CC1 [Compound G] |  |  |  | 67.7% |  | 0.6% | 2% | 70.7% |  | 
7 | CCCN(CCO)C(=O)CC1c2ccccc2-c2ccccc21 [Compound H] | 86.4% |  |  |  | 67.6% | 27.2% | 79.8% | 74.8% and 102.7% | 76.6% | % of Control [8]: 72.8% and 99.9%; % of Control [14]: 80.2% and 100.4%; % of Control (10 μM test compound alone, 10 µM): 74.6% and 111.7%; % of Control (100 μM test compound + 10 μM Retinol): 44.4%; % of Control (100 μM test compound alone, 100 µM): 73.6%
8 | O=C(CC1c2ccccc2-c2ccccc21)N1CCC(O)(c2ccc(Cl)cc2)CC1 [Compound F] |  |  | 72.3% |  |  |  |  | 90.2% |  | % of Control [14]: 27.0%; activity at 0.1 µM [9]: 92.8%; activity at 0.1 µM [10]: 83.6%; activity at 0.1 µM [11]: 95.8%; activity at 10 µM [13]: 16.7%
9 | CC(O)c1cccc(NC(=O)N2c3ccccc3CCc3ccccc32)c1 (stereo not shown) [Compound A] | 82.8% | 93.2% | 85.7% | 91.3% | 1% | 0.6% | 2.1% |  |  | 
